Assay results published in ChEMBL document CHEMBL3045824, “Unique neonicotinoid binding conformations conferring selective receptor interactions” (J Agric Food Chem, 2011).

Legend:
[1] = target: T1, Acetylcholine receptor subunit beta-like 2 (Drosophila melanogaster, UniProt P25162); assay: Binding affinity to Drosophila brain nicotinic acetylcholine receptor assessed as [3H]IMI binding by radioligand binding assay
T1 sequence (P25162 whole entry): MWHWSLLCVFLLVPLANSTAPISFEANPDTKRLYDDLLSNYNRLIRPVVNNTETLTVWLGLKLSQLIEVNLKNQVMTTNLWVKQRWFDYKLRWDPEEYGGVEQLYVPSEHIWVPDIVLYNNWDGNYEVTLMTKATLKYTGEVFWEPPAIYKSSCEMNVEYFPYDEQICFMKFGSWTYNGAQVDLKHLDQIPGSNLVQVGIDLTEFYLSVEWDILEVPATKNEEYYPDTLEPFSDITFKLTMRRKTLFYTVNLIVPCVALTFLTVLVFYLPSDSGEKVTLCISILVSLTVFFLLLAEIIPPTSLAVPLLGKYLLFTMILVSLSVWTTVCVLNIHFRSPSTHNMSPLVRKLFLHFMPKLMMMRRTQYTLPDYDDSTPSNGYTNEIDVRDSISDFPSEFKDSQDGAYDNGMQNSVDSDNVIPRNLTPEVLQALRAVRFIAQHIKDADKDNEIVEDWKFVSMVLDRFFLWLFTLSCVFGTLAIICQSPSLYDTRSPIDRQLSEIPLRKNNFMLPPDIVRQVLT

[2] = target: Soluble acetylcholine receptor (Aplysia californica, UniProt Q8WSF8, Y55W); assay: Binding affinity to salt water mollusc Aplysia californica AChBP Y55W mutant assessed as [3H]acetamiprid binding by radioligand binding assay
[3] = target: Neuronal acetylcholine receptor subunit alpha-4 (Gallus gallus, UniProt P09482+P09484); assay: Binding affinity to recombinant Gallus gallus (chicken) alpha4beta2 nicotinic acetylcholine receptor assessed as [3H]NIC binding by radioligand binding assay
[4] = target: Acetylcholine-binding protein (Lymnaea stagnalis, UniProt P58154); assay: Binding affinity to freshwater snail Lymnaea stagnalis AChBP assessed as [3H]EPI binding by radioligand binding assay
Chain of Acetylcholine-binding protein (P58154 whole entry): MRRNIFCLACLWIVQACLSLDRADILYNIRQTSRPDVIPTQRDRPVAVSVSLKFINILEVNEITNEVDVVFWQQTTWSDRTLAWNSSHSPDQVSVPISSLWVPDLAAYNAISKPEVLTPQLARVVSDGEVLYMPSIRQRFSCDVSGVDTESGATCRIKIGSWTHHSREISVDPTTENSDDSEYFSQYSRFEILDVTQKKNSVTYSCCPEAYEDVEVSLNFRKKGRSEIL

Chain of Neuronal acetylcholine receptor subunit alpha-4 (P09482 whole entry, one chain of several): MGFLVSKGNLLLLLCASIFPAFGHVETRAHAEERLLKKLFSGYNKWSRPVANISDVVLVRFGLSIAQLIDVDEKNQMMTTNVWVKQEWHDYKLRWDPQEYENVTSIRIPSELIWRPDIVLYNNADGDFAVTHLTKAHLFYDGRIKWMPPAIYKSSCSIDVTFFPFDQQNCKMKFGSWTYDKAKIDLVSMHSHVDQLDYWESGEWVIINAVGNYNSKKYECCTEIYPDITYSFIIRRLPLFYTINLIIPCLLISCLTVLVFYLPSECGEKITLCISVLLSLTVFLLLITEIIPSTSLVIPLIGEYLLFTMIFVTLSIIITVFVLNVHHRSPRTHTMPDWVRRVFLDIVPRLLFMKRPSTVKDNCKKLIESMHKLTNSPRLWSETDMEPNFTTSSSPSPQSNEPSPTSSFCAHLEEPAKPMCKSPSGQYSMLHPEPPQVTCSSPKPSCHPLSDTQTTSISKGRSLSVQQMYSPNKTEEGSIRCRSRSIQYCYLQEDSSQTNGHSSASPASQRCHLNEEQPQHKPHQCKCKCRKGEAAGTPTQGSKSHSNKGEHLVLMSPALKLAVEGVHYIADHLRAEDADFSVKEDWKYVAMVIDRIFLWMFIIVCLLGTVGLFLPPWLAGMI

O=[N+]([O-])/C=C1\NCCN1Cc1ccc(Cl)nc1
Ki [1]: 0.12 nM | Ki [2]: 1.7 nM | Ki [3]: 60 nM

C/C(=N\C#N)N(C)Cc1ccc(Cl)nc1
Ki [1]: 7.2 nM | Ki [4]: 1200 nM | Ki [2]: 32 nM | Ki [3]: 680 nM

Clc1ccc(C2CC3CCC2N3)cn1 (racemic) [EPIBATIDINE]
Ki [1]: 290 nM | Ki [4]: 0.3 nM | Ki [2]: 1 nM

N=C1SCCN1Cc1ccc(Cl)nc1 [DESCYANOTHIACLOPRID]
Ki [1]: 130 nM | Ki [4]: 16 nM | Ki [2]: 0.6 nM | Ki [3]: 1.2 nM

N=C1NCCN1Cc1ccc(Cl)nc1 [DESNITROIMIDACLOPRID]
Ki [1]: 1000 nM | Ki [4]: 18 nM | Ki [2]: 15 nM | Ki [3]: 2.2 nM

O=[N+]([O-])NC1=NCCN1Cc1ccc(Cl)nc1 [IMIDACLOPRID]
Ki [1]: 3 nM | Ki [2]: 19 nM | Ki [3]: 970 nM

CN1CCC[C@H]1c1cccnc1 [NICOTINE]
Ki [1]: 2700 nM | Ki [2]: 30 nM | Ki [3]: 1.9 nM

N#C/N=C1\SCCN1Cc1ccc(Cl)nc1 [THIACLOPRID]
Ki [1]: 1.2 nM | Ki [2]: 3.9 nM | Ki [3]: 240 nM
